Like-named read-outs stand apart in the source and are kept apart here.
Tested on: SK-OV-3 cells
Assay: Effect of compounds on tryptophan catabolism in SK-OV-3 cell line (inhibition of kynurenine production, LC-MS/MS)
Assay type: cell-based
Settings: read-out: IC50 Ranges (ic50 values for inhibition of Kynurenine production)
Method in brief: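 Cells seeded overnight in McCoy's 5A/10% FBS, then switched to DMEM F-12 with 6 mg/mL L-tryptophan; compounds added at 8 3-fold dilutions from 30 μM, in duplicate, 24 h at 37 °C. Supernatant kynurenine measured by LC-MS/MS; ATP-based viability run in parallel; IC50 from % inhibition of Kyn production.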

[1] = Homo sapiens, SK-OV-3, 24 h, SK-OV-3 cell line, 24 h incubation, kynurenine in supernatant by LC-MS/MS
[2] = SK-OV-3 cell line, 24 h incubation, kynurenine in supernatant by LC-MS/MS

IC50 [1] [nM]	Compound	other results
1000 to 5000	O=C(Nc1ccccc1)N(Cc1cccs1)c1ccc(Cl)cc1 [Compound 196, 1-(4-chlorophenyl)-3-phenyl-1-(2-thienylmethyl)urea]	
1000 to 5000	CN(Cc1cccs1)C(=O)Nc1ccc(Cl)c(Cl)c1 [Compound 200, 3-(3,4-dichlorophenyl)-1-methyl-1-(2-thienylmethyl)urea]	
1000 to 5000	Cc1ccc(N(Cc2cccs2)C(=O)NC2CCCCC2)cc1 [Compound 201, 3-cyclohexyl-1-(p-tolyl)-1-(2-thienylmethyl) urea]	
1000 to 5000	COc1ccc(N(Cc2cccs2)C(=O)NC2CCCCC2)cc1 [Compound 202, 3-cyclohexyl-(4-methoxyphenyl)-1-(2-thienylmethyl) urea]	
1000 to 5000	Cc1oc(-c2ccccc2)nc1CNC(=O)Nc1ccccc1 [Compound 203, 1-[(5-methyl-2-phenyl-oxazol-4-yl)methyl]-3-phenyl-urea]	
> 5000	O=C(NCc1sccc1Cl)Nc1cccc(Cl)c1 [Compound 204, 1-(3-chlorophenyl)-3-[(3-chloro-2-thienyl)methyl]urea]	
100 to 500	COc1cc(NC(=O)N(Cc2ccc(C)o2)C2CCCC2)ccc1C#N [Compound 205]	
< 100	Cc1ccc(CN(C(=O)Nc2ccc(Cl)cc2)C2CCCC2(F)F)o1 (stereo not shown) [Compound 206, 3-(4-chlorophenyl)-1-(2,2-difluorocyclopentyl)-1-[(5-methyl-2-furyl)methyl]urea]	
100 to 500	N#Cc1ccc(NC(=O)N(Cc2cc3ccccn3n2)C2CCC2)cc1 [Compound 207, 3-(4-cyanophenyl)-1-cyclobutyl-1-(pyrazolo[1,5-a]pyridin-2-ylmethyl)urea]	
500 to 1000	Cc1ccc(CN(C(=O)Nc2ccc(C#N)cc2)C2CC(F)C2)o1 (stereo not shown) [Compound 208, 3-(4-cyanophenyl)-1-(3-fluorocyclobutyl)-1-[(5-methyl-2-furyl)methyl]urea]	
500 to 1000	N#Cc1ccc(NC(=O)N(Cc2ccc3ncoc3c2)C2CCC2)cc1 [Compound 209, 1-(1,3-benzoxazol-6-ylmethyl)-3-(4-cyanophenyl)-1-cyclobutyl-urea]	
1000 to 5000	N#Cc1ccc(NC(=O)N(Cc2cn3ccccc3n2)C2CCC2)cc1 [Compound 210, 3-(4-cyanophenyl)-1-cyclobutyl-1-(imidazo[1,2-a]pyridin-2-ylmethyl)urea]	
> 5000	N#Cc1ccc(NC(=O)N(Cc2cn3ccncc3n2)C2CCC2)cc1 [Compound 211, 3-(4-cyanophenyl)-1-cyclobutyl-1-(imidazo[1,2-a]pyrazin-2-ylmethyl)urea]	
1000 to 5000	O=C(Nc1ccc(Cl)cc1)N(Cc1cn2ccncc2n1)C1CCC1 [Compound 212, 3-(4-chlorophenyl)-1-cyclobutyl-1-(imidazo[1,2-a]pyrazin-2-ylmethyl)urea]	
< 100	Cc1ccc(CN(C(=O)Nc2ccc(C#N)cc2)C2CCCC2(F)F)o1 (stereo not shown) [Compound 214, 3-(4-cyanophenyl)-1-(2,2-difluorocyclopentyl)-1-[(5-methyl-2-furyl)methyl]urea]	
< 100	COC1CC(N(Cc2ccc(C)o2)C(=O)Nc2ccc(C#N)cc2)C1 (stereo not shown) [Compound 216, 3-(4-cyanophenyl)-1-(3-methoxycyclobutyl)-1-[(5-methyl-2-furyl)methyl]urea]	
100 to 500	Cn1ncc2ccc(CN(C(=O)Nc3ccc(C#N)cc3)C3CCC3)cc21 [Compound 217, 3-(4-cyanophenyl)-1-cyclobutyl-1-[(1-methylindazol-6-yl)methyl]urea]	
500 to 1000	Cc1ccc(CN(C(=O)Nc2ccc(C#N)cc2)c2cnn(C)c2)o1 [Compound 218, 3-(4-cyanophenyl)-1-[(5-methyl-2-furyl)methyl]-1-(1-methylpyrazol-4-yl)urea]	

Continued, compound first:

Compound	IC50 [1] [nM]	other results
C#Cc1ccc(NC(=O)N(Cc2ccnc(C(F)(F)F)c2)C2CCC2)cc1 [Compound 153, 1-cyclobutyl-3-(4-ethynylphenyl)-1-[[2-(trifluoromethyl)-4-pyridyl]methyl]urea]	< 100	
Cc1ccc(CN(C(=O)Nc2ccc(C#Cc3ccccc3)cc2)C2CCCC2)o1 [Compound 155, 1-cyclopentyl-1-[(5-methyl-2-furyl)methyl]-3-[4-(2-phenylethynyl)phenyl]urea]	500 to 1000	
Cc1ccc(CN(C(=O)Nc2ccc(C#CCc3ccccc3)cc2)C2CCCC2)o1 [Compound 156, 1-cyclopentyl-1-[(5-methyl-2-furyl)methyl]-3-[4-(3-phenylprop-1-ynyl)phenyl]urea]	500 to 1000	
N#Cc1cccc(CN(C(=O)Nc2ccc(Cl)cc2)C2CCCC2)n1 [Compound 157, 3-(4-chlorophenyl)-1-[(6-cyano-2-pyridyl)methyl]-1-cyclopentyl-urea]	100 to 500	
Cc1ccc(CN(C(=O)Nc2ccc(C3CN(C(=O)OC(C)(C)C)C3)cc2)C2CCCC2)o1 [Compound 159, tert-butyl 3-[4-[[cyclopentyl-[(5-methyl-2-furyl)methyl]-carbamoyl]amino]phenyl]azetidine-1-carboxylate]		IC50 (Homo sapiens, SK-OV-3, 24 h): 1000 to 5000 nM
Cc1ccc(CN(C(=O)Nc2ccc(-c3cnn(C)c3)nc2)C2CCCC2)o1 [Compound 160, 1-cyclopentyl-1-[(5-methyl-2-furyl)methyl]-3-[6-(1-methylpyrazol-4-yl)-3-pyridyl]urea]	1000 to 5000	
Cc1ccc(CN(C(=O)Nc2ncc(Br)s2)C2CCCC2)o1 [Compound 161, 3-(5-bromothiazol-2-yl)-1-cyclopentyl-1-[(5-methyl-2-furyl)methyl]urea]	< 100	
C#Cc1ccc(NC(=O)N(Cc2ccno2)C2CCCC2)cc1 [Compound 163, 1-cyclopentyl-3-(4-ethynylphenyl)-1-(isoxazol-5-ylmethyl)urea]	< 100	
Cc1ccc(CN(C(=O)Nc2ccc(-n3cc(CO)nn3)cc2)C2CCCC2)o1 [Compound 164, 1-cyclopentyl-3-[4-[4-(hydroxymethyl)triazol-1-yl]phenyl]-1-[(5-methyl-2-furyl)methyl]urea]	< 100	
CCN(Cc1ccc(C)o1)C(=O)Nc1ccccc1 [Compound 165, 1-ethyl-1-[(5-methyl-2-furyl)methyl]-3-phenyl-urea]	1000 to 5000	
CCCN(Cc1ccc(C)o1)C(=O)Nc1ccccc1 [Compound 166, 1-[(5-methyl-2-furyl)methyl]-3-phenyl-1-propyl-urea]	500 to 1000	
Cc1ccc(CN(C(=O)Nc2ccccc2)C2CC2)o1 [Compound 167, 1-cyclopropyl-1-[(5-methyl-2-furyl)methyl]-3-phenyl-urea]	1000 to 5000	
Cc1ccc(CN(C(=O)Nc2nnc(-c3cccs3)o2)C2CCCC2)o1 [Compound 168, 1-cyclopentyl-1-[(5-methyl-2-furyl)methyl]-3-[5-(2-thienyl)-1,3,4-oxadiazol-2-yl]urea]	500 to 1000	
Cc1ccc(CN(C(=O)Nc2nnc(C3CCCCC3)o2)C2CCCC2)o1 [Compound 169, 3-(5-cyclohexyl-1,3,4-oxadiazol-2-yl)-1-cyclopentyl-1-[(5-methyl-2-furyl)methyl]urea]	1000 to 5000	
Cc1nc(C)c(CN(C(=O)Nc2ccccc2)C2CCCC2)s1 [Compound 170, 1-cyclopentyl-1-[(2,4-dimethylthiazol-5-yl)methyl]-3-phenyl-urea]	1000 to 5000	
Cc1nc(C)c(CN(C(=O)Nc2ccc(F)c(F)c2)C2CCCC2)s1 [Compound 171, 1-cyclopentyl-1-[(2,4-dimethylthiazol-5-yl)methyl]-3-(3,4-difluorophenyl)-urea]	1000 to 5000	
Cc1ccc(CN(C(=O)Nc2ccc(Cl)cc2F)C2CCCC2)o1 [Compound 172, 3-(4-chloro-2-fluoro-phenyl)-1-cyclopentyl-1-[(5-methyl-2-furyl)methyl]urea]	100 to 500	
Cc1ccc(CN(C(=O)Nc2nnc(-c3ccccc3)o2)C2CCCC2)o1 [Compound 175, 1-cyclopentyl-1-[(5-methyl-2-furyl)methyl]-3-(5-phenyl-1,3,4-oxadiazol-2-yl) urea]	500 to 1000	
Cc1ccc(CN(C(=O)Nc2ccccc2)C2CCCC2)o1 [Compound 176, 1-cyclopentyl-1-[(5-methyl-2-furyl)methyl]-3-phenyl-urea]	100 to 500	
CCc1ccc(NC(=O)N(Cc2ccc(C)o2)C2CCCC2)cc1 [Compound 177, 1-cyclopentyl-3-(4-ethylphenyl)-1-[(5-methyl-2-furyl)methyl]urea]	< 100	
Cc1ccc(CN(C(=O)Nc2ccccc2)C2CCC2)o1 [Compound 178, 1-cyclobutyl-1-[(5-methyl-2-furyl)methyl]-3-phenyl-urea]	1000 to 5000	
Cc1ccc(CN(C(=O)Nc2ccccc2)c2ncco2)o1 [Compound 179, 1-[(5-methyl-2-furyl)methyl]-1-oxazol-2-yl-3-phenyl-urea]	> 5000	
Cc1ccc(CN(C(=O)Nc2ccc(F)cc2)c2ncco2)o1 [Compound 180, 3-(4-fluorophenyl)-1-[(5-methyl-2-furyl)methyl]-1-oxazol-2-yl-urea]	> 5000	
Cc1ccc(CN(C(=O)NCCc2ccccc2)C2CCCC2)o1 [Compound 181, 1-cyclopentyl-1-[(5-methyl-2-furyl)methyl]-3-(2-phenylethyl)urea]	1000 to 5000	
Cc1ccc(CN(C(=O)Nc2ccc(Cl)cc2)c2nccn2C)o1 [Compound 182, 3-(4-chlorophenyl)-1-[(5-methyl-2-furyl)methyl]-1-(1-methylimidazol-2-yl) urea]	100 to 500	
Cc1ccc(CN(C(=O)Nc2ccc(Cl)cc2)c2cnc[nH]2)o1 [Compound 183, 3-(4-chlorophenyl)-1-(1H-imidazol-5-yl)-1-[(5-methyl-2-furyl)methyl]urea]	1000 to 5000	
Cc1ccc(CN(C(=O)Nc2ccc(Cl)cc2)c2cncn2C)o1 [Compound 193, 3-(4-chlorophenyl)-1-[(5-methyl-2-furyl)methyl]-1-(3-methylimidazol-4-yl)urea]		IC50 [2]: 500 to 1000 nM
O=C(Nc1ccccc1)N(Cc1cccs1)C1CCCC1 [Compound 195, 1-cyclopentyl-3-phenyl-1-(2-thienylmethyl)urea]		IC50 [2]: 100 to 500 nM
